Test results: the NIST ThermoML archive (doi:10.1021/je400423u)
± gives the expanded uncertainty stated by the source.

Assay: xn = mol fraction of the nth substance listed
Details: 101 kPa, Liquid; for mass density: Vibrating tube method; for viscosity: Falling or rolling sphere viscometry

CC(C)(C)O [2-methylpropan-2-ol] + CCC(C)O
Details	mass density, 323.15 K [kg/m3]	mass density, 328.15 K [kg/m3]	mass density, 333.15 K [kg/m3]	mass density, 338.15 K [kg/m3]	mass density, 343.15 K [kg/m3]	viscosity, 328.15 K [mPa·s]	viscosity, 333.15 K [mPa·s]	viscosity, 338.15 K [mPa·s]	viscosity, 343.15 K [mPa·s]
x2 = 0	–	748.62 ± 0.13	742.95 ± 0.14	737.19 ± 0.14	731.31 ± 0.14	–	–	–	–
x2 = 0.1002	–	752.053 ± 0.13	746.671 ± 0.14	741.149 ± 0.14	735.411 ± 0.14	1.178 ± 0.0094	1.007 ± 0.0083	0.8692 ± 0.0075	0.7586 ± 0.0068
x2 = 0.2001	–	755.328 ± 0.14	750.068 ± 0.14	744.63 ± 0.14	738.998 ± 0.14	1.171 ± 0.0094	1.003 ± 0.0083	0.8679 ± 0.0075	0.7589 ± 0.0068
x2 = 0.3008	–	758.481 ± 0.14	753.262 ± 0.14	747.865 ± 0.14	742.315 ± 0.14	1.164 ± 0.0094	0.9994 ± 0.0083	0.8665 ± 0.0075	0.7593 ± 0.0068
x2 = 0.3999	–	761.481 ± 0.14	756.271 ± 0.14	750.893 ± 0.14	745.431 ± 0.14	1.158 ± 0.0094	0.9962 ± 0.0083	0.8654 ± 0.0075	0.7601 ± 0.0069
x2 = 0.5005	–	764.427 ± 0.14	759.241 ± 0.14	753.913 ± 0.14	748.529 ± 0.14	1.154 ± 0.0094	0.9947 ± 0.0083	0.8659 ± 0.0075	0.7616 ± 0.0069
x2 = 0.6004	–	767.214 ± 0.14	762.081 ± 0.14	756.832 ± 0.14	751.539 ± 0.14	1.151 ± 0.0094	0.9943 ± 0.0084	0.8678 ± 0.0076	0.7648 ± 0.0069
x2 = 0.6999	–	769.823 ± 0.14	764.795 ± 0.14	759.643 ± 0.14	754.435 ± 0.15	1.15 ± 0.0094	0.996 ± 0.0084	0.8713 ± 0.0076	0.769 ± 0.007
x2 = 0.8009	776.998 ± 0.14	772.229 ± 0.14	767.312 ± 0.14	762.272 ± 0.15	757.148 ± 0.15	1.15 ± 0.0095	0.9994 ± 0.0085	0.876 ± 0.0077	0.7743 ± 0.0071
x2 = 0.8998	778.948 ± 0.14	774.252 ± 0.15	769.418 ± 0.15	764.451 ± 0.15	759.383 ± 0.15	1.153 ± 0.0095	1.004 ± 0.0085	0.8813 ± 0.0077	0.7798 ± 0.0071
